Where “and” joins values, the source holds several entries; their conditions need not be identical. Equal entries are not always repeated. Structures can show the parent of a compound that is named as a salt.
What was measured:
[1] = tested on: A1 and A2 adenosine receptor; conditions: disclosed by Hamilton et al, J. Med. Chem. (1985) 28: 1071; cited from earlier work
[2] = tested on: locomotor suppressant effects of A1 selective adenosine agonist CPA; experiment: CNS activity: antagonism of locomotor suppressant effect of A1 agonist CPA in mice; format: in vivo, mouse (male Swiss-Webster)
Procedure: (§1) The procedure employs naive animals obviating the need for extensive training and precluding possible cumulative drug effects.
(§2) Suspensions are ultrasonicated for 3 minutes.

[3] = tested on: locomotor suppressant effects of A2 selective agonist CV-1808; experiment: CNS activity: antagonism of locomotor suppressant effect of A2 agonist CV-1808 in mice; format: in vivo, mouse (male Swiss-Webster); conditions: for Locomotor activity, % suppression (B, A2 agonist alone): CV-1808 8 mg/kg IP alone
Procedure: as §1, §2

A1 adenosine receptor = biological target: T1, A1 adenosine receptor (Rattus norvegicus, UniProt P25099); experiment: Adenosine Receptor Binding--A1 Receptor Affinity (RBA1), [3H]-CHA, rat whole brain membranes; set-up: species or system rat (male Long-Evans); conditions: [3H]-CHA 1.0 nM, 25° C., one hour, pH 7.7; read-out: RBA-1 IC50 (adenosine A1 receptor affinity)
T1 construct: Whole brain minus cerebellum and brainstem from male Long-Evans rats (150-200 g) is homogenized; from tissue; host or cells: rat whole brain minus cerebellum and brainstem, membranes
T1 sequence (P25099 1-326): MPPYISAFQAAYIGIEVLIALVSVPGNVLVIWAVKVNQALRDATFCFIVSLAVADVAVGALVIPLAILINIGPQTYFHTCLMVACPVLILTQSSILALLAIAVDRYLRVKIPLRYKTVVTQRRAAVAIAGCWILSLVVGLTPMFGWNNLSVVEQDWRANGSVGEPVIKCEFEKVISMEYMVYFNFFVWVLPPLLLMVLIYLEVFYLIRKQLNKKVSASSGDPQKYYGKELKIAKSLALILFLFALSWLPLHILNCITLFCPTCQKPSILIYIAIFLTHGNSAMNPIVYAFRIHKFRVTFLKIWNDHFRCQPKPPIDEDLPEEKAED
Procedure: Adenosine Receptor Binding--A1 Receptor Affinity (RBA1)
Whole brain minus cerebellum and brainstem from male Long-Evans rats (150-200 g) is homogenized in 30 volumes of ice-cold 0.05M Tris-HCl buffer pH 7.7 using a Brinkman Polytron PT-10, (setting number 6 for 20 seconds) and centrifuged for ten minutes at 20,000×g (Sorvall RC-2), 4° C. The supernatant is discarded, and the pellet is resuspended and centrifuged as before. The pellet is resuspended in 20 ml Tris-HCl buffer containing two International Units/ml of adenosine deaminase (Sigma type III from calf intestinal mucosa), incubated at 37° C. for 30 minutes, then subsequently at 0° C. for ten minutes. The homogenate is again centrifuged, and the final pellet is resuspended in ice-cold 0.05M Tris-HCl buffer pH 7.7 to a concentration of 20 mg/ml original wet tissue weight and used immediately.
Tissue homogenate (10 mg/ml) is incubated in 0.05M Tris-HCl buffer pH 7.7 containing 1.0 nM [^3 H]-N6-cyclohexyladenosine ([^3 H]-CHA) with or without test agents in triplicate for one hour at 25° C. Incubation volume was 2 ml. Unbound [^3 H]-CHA is separated by rapid filtration under reduced pressure through Whatman glass fiber (GF/B) filters. The filters are rinsed three times with 5 ml of ice-cold 0.05M Tris-HCl buffer pH 7.7. The radio-labeled ligand retained on the filter is measured by liquid scintillation spectrophotometry after shaking the filters for one hour or longer on a mechanical shaker in 10 ml of Beckman Ready-Solv HP scintillation cocktail.
The Scatchard plot is calculated by linear regression of the line obtained by plotting the amount of radioligand bound (pmoles/gram of tissue) versus [formula] Since the amount of radioligand bound is a small fraction of the total amount added, free radioligand is defined as the concentration of (nM) of radioligand added to the incubation mixture. The Hill coefficient is calculated by linear regression of the line obtained by plotting the log of the bound radioligand vs the log of the [formula] The maximal number of binding sites (Bmax) is calculated from the Scatchard plot.

A2 adenosine receptor = biological target: T2, A2 adenosine receptor (Rattus norvegicus, UniProt P30543); experiment: Adenosine Receptor Binding--A2 Receptor Affinity (RBA2), [3H]NECA, rat striatal membranes; set-up: species or system rat (Sprague-Dawley); conditions: [3H]NECA 4 nM, 50 nM N6-cyclopentyladenosine, 25° C., 60 minutes; read-out: RBA-2 IC50 (adenosine A2 receptor affinity)
T2 construct: Brains are thawed and then kept on ice while the striata are dissected out; tissue Pel-Freez (Rogers, Ark.); host or cells: rat striatum, membranes
T2 sequence (P30543 whole entry): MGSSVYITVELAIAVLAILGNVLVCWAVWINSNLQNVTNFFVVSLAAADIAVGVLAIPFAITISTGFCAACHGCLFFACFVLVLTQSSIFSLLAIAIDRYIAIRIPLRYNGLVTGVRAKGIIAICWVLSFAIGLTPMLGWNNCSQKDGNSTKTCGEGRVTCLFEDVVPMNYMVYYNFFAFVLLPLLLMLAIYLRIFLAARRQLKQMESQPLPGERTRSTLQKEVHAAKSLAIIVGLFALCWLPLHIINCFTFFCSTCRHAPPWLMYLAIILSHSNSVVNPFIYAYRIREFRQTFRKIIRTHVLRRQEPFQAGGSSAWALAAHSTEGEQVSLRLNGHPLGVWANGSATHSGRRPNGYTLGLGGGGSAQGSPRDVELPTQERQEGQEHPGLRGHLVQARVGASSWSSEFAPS
Procedure: Adenosine Receptor Binding--A2 Receptor Affinity (RBA2)
The membrane suspension (5 mg/0.79 ml) contained sufficient MgCl2 and adenosine deaminase to give 10 mM and 0.1 units/ml, respectively, final concentration in the incubation.
[formula] where Y is cpm bound
T is cpm total binding without drug
S is cpm specific binding without drug
D is the concentration of drug and
K is the IC50 of the drug

[4] = CNS activity: locomotor activity of antagonist alone in mice (reference control); format: in vivo, mouse (male Swiss-Webster); conditions: antagonist 10 mg/kg IP alone; CV-1808 experiment

8-(4-sulfonylphenyl)-3,9-dihydro-1,3-bis(2-propenyl)-1H-purine-2,6-dione
A1 and A2 adenosine receptor binding activity (in words) [1]: having A1 and A2 adenosine receptor binding activity

C=CCn1c(=O)c2nc(C)[nH]c2n(CC=C)c1=O [8-methyl-3,9-dihydro-1,3-bis(2-propenyl)-1H-purine-2,6-dione]
A1 and A2 adenosine receptor binding activity (in words) [1]: having A1 and A2 adenosine receptor binding activity

OC[C@H]1O[C@@H](n2cnc3c(NC4CCCC4)ncnc32)[C@H](O)[C@@H]1O [CPA, N^6 -cyclopentyladenosine, reference compound]
Locomotor activity, % suppression (B, A1 agonist alone) ([2]; CPA 2 mg/kg IP alone): 90% and 94%

Nc1nc(Nc2ccccc2)nc2c1ncn2[C@@H]1O[C@H](CO)[C@@H](O)[C@H]1O [CV-1808, 2-anilinoadenosine, reference compound]
Locomotor activity, % suppression (B, A2 agonist alone) ([3]; 8 mg/kg): 83%
Locomotor activity, % suppression (B, A2 agonist alone) ([3]; listed as CV-1810): 62%

C=CCn1c(=O)c2nc(-c3ccc(Cl)cc3N)[nH]c2n(CC=C)c1=O [Example 1, 8-(2-Amino-4-chlorophenyl)-3,9-dihydro-1,3-bis(2-propenyl)-1H-purine-2,6-dione]
IC50 (A1 adenosine receptor): 130 nM
A1 and A2 adenosine receptor binding activity (in words) [1]: having A1 and A2 adenosine receptor binding activity

C=CCn1c(=O)c2nc(-c3ccc(S(=O)(=O)O)cc3)[nH]c2n(CC=C)c1=O [Example 2, 4-(2,3,6,7-Tetrahydro-2,6-dioxo-1,3-di-2-propenyl-1H-purine-8-yl)benzenesulfonic acid]
IC50 (A1 adenosine receptor): 6960 nM

C=CCn1c(=O)c2[nH]c(-c3ccc(S(=O)(=O)NCCCN(C)C)cc3)nc2n(CC=C)c1=O [Example 3, N-[3-(dimethylamino)propyl]-4-(2,3,6,7-tetrahydro-2,6-dioxo-1,3-di-2-propenyl-1H-purine-8-yl)benzenesulfonamide monohydrochloride]
IC50 (A1 adenosine receptor): 260 nM

C=CCn1c(=O)c2[nH]c(C3CCCC3)nc2n(CC=C)c1=O [Example 4, 8-Cyclopentyl-3,7-dihydro-1,3-bis(2-propenyl)-1H-purine-2,6-dione]
IC50 (A1 adenosine receptor): 9 nM
IC50 (A2 adenosine receptor): 3500 nM
% Reversal (B - C) ÷ B × 100, against CV-1808 (A2) ([3]; antagonist 10 mg/kg, CV-1808 8 mg/kg, IP): 8%
Locomotor activity, % suppression (C, agonist + antagonist) ([3]; antagonist + CV-1808 8 mg/kg, IP, antagonist 10 mg/kg): 57%
Reversal Rating A2 (against CV-1808) ([3]; paired t-test of B and C): N (if the data are insignificant (p>0.05) then the dose effect is given a rating of "N")
Locomotor activity, % suppression (C, agonist + antagonist) ([2]; antagonist 10 mg/kg + CPA 2 mg/kg, IP): 16%
% Reversal (B - C) ÷ B × 100, against CPA (A1) ([2]; antagonist 10 mg/kg, CPA 2 mg/kg, IP): 82%
Reversal Rating A1 (against CPA) ([2]; paired t-test of B and C): A (if the values are significantly different (p<0.05) from each other then the dose effect is given a reversal rating of "A")
Locomotor activity, % suppression (A, antagonist alone) [4]: 18%

C=CCn1c(=O)c2[nH]c(-c3ccc(S(=O)(=O)NCCCN(C)C)cc3)nc2n(CC=C)c1=O [N-[3-(dimethylamino)propyl]-4-(2,3,6,7-tetrahydro-2,6-dioxo-1,3-2-propenyl-1H-purine-8-yl)benzensulfonamide]
A1 and A2 adenosine receptor binding activity (in words) [1]: having A1 and A2 adenosine receptor binding activity

Source: US4772607A, “Dialkenyl derivatives of xanthine, pharmaceutical compositions and methods of use therefor” (Warner-Lambert Company, priority 1986, dated 1988)
